This is an account of results in patent US20050202089A1 (SANOFI-SYNTHELABO, priority 1996, published 2005).

The series is described as follows: solubility of mizolastine in water.

By solubility is commonly meant how much of the substance goes into solution per volume. Read a high solubility as much dissolved substance.

Turning to “2-[[1-[1-[(4-fluorophenyl)methyl]-1H-benzimidazol-2-yl]piperid-4-yl]methylamino]-pyrimidin-4-ol [mizolastine]”, the solubility in water (neutral pH) came out at 13 µg/mL. This substance had a solubility (pH 3) of 11000 µg/mL.
